Experimental data taken from patent US10392422B2, “Macrocyclic broad spectrum antibiotics” (priority 2014, dated 2019).

Key:
[1] = tested on: MRSA strain USA300; test: SIC determination with partner beta-lactam antibiotics; format: cell-based, Staphylococcus aureus
Experimental: Many compounds in the Examples, including Compound 155, synergize with a wide range of beta-lactam antibiotics as quantified by SIC determination, where the SIC is measured and defined in a manner identical to the MIC, […] being tested.

[2] = tested on: MRSA strain USA300; test: Time-kill assay; format: cell-based, Staphylococcus aureus; details: 1 ug/mL imipenem plus 16 ug/mL Compound 155; initial density 1*10^7 cfu/mL; FIG. 2
Experimental: Time-kill experiments enable quantification of rate of bacterial growth or death in the presence of a fixed concentration of one or more antibiotics (Arhin. F., et. al., Current Protocols in Microbiology 17.1.1-17.1.22, February 2010). Time-kill experiments were performed in 96-well incubation plates using Mueller Hinton II Broth+0.002% Tween-80 as the growth media. Individual wells contained imipenem alone, Compound 155 alone, or a combination of both agents at various concentrations. MRSA strain USA300 was grown overnight at 35° C. on Mueller Hinton Agar plates, and colonies were suspended in Mueller Hinton II Broth+0.002% Tween-80 to a final density of 2*10^8 cfu/mL. To each well of the incubation plates, 5 uL of this suspension were added, resulting in an initial density of 1*10^7 cfu/mL. Plates were incubated at 35° C., and at various time points 30 ul samples were removed, mixed 1:1 with 25 mg/ml activated carbon, serially diluted in sterile phosphate buffered saline supplemented with 0.05% Tween 20, and spotted onto Mueller Hinton Agar plates to enable cfu quantification. Colonies were counted and the cfu/ml at each time point calculated by based on the dilution factor and volume spotted.

CCCCCCCCCCNCCC(=O)N[C@@H](CCCCN)C(=O)N(C)[C@@H]1C(=O)N[C@@H](C)C(=O)N[C@H](C(=O)N[C@@H](C)C(=O)N2CCC[C@H]2C(N)=O)Cc2ccc(O)c(c2)-c2cc1ccc2O.O=CO [Compound 155]
Fold reduction in Compound 155 MIC ([1]; MRSA strain USA300, partner beta-lactam Ampicillin at 1/4x its MIC): 4
Fold reduction in Compound 155 MIC ([1]; MRSA strain USA300, partner beta-lactam Azlocillin at 1/4x its MIC): 4
Fold reduction in Compound 155 MIC ([1]; MRSA strain USA300, partner beta-lactam Biapenem at 1/4x its MIC): 64
Fold reduction in Compound 155 MIC ([1]; MRSA strain USA300, partner beta-lactam Carbenicillin at 1/4x its MIC): 8
Fold reduction in Compound 155 MIC ([1]; MRSA strain USA300, partner beta-lactam Cefaclor at 1/4x its MIC): 16
Fold reduction in Compound 155 MIC ([1]; MRSA strain USA300, partner beta-lactam Cefamandole at 1/4x its MIC): 16
Fold reduction in Compound 155 MIC ([1]; MRSA strain USA300, partner beta-lactam Cefazolin at 1/4x its MIC): 32
Fold reduction in Compound 155 MIC ([1]; MRSA strain USA300, partner beta-lactam Cefdinir at 1/4x its MIC): >256
Fold reduction in Compound 155 MIC ([1]; MRSA strain USA300, partner beta-lactam Cefepime at 1/4x its MIC): 32
Fold reduction in Compound 155 MIC ([1]; MRSA strain USA300, partner beta-lactam Cefixime at 1/4x its MIC): 16
Fold reduction in Compound 155 MIC ([1]; MRSA strain USA300, partner beta-lactam Cefmetazole at 1/4x its MIC): 8
Fold reduction in Compound 155 MIC ([1]; MRSA strain USA300, partner beta-lactam Cefonicid at 1/4x its MIC): 16
Fold reduction in Compound 155 MIC ([1]; MRSA strain USA300, partner beta-lactam Cefotaxime at 1/4x its MIC): 32
Fold reduction in Compound 155 MIC ([1]; MRSA strain USA300, partner beta-lactam Cefotetan at 1/4x its MIC): 8
Fold reduction in Compound 155 MIC ([1]; MRSA strain USA300, partner beta-lactam Cefoxitin at 1/4x its MIC): 16
Fold reduction in Compound 155 MIC ([1]; MRSA strain USA300, partner beta-lactam Cefpodoxime at 1/4x its MIC): 32
Fold reduction in Compound 155 MIC ([1]; MRSA strain USA300, partner beta-lactam Cefprozil at 1/4x its MIC): 16
Fold reduction in Compound 155 MIC ([1]; MRSA strain USA300, partner beta-lactam Ceftazidime at 1/4x its MIC): 8
Fold reduction in Compound 155 MIC ([1]; MRSA strain USA300, partner beta-lactam Ceftizoxime at 1/4x its MIC): 16
Fold reduction in Compound 155 MIC ([1]; MRSA strain USA300, partner beta-lactam Ceftriaxone at 1/4x its MIC): 64
Fold reduction in Compound 155 MIC ([1]; MRSA strain USA300, partner beta-lactam Cephalothin at 1/4x its MIC): 64
Fold reduction in Compound 155 MIC ([1]; MRSA strain USA300, partner beta-lactam Doripenem at 1/4x its MIC): 32
Fold reduction in Compound 155 MIC ([1]; MRSA strain USA300, partner beta-lactam Ertapenem at 1/4x its MIC): 16
Fold reduction in Compound 155 MIC ([1]; MRSA strain USA300, partner beta-lactam Faropenem at 1/4x its MIC): >256
Fold reduction in Compound 155 MIC ([1]; MRSA strain USA300, partner beta-lactam Imipenem at 1/4x its MIC): 32
Fold reduction in Compound 155 MIC ([1]; MRSA strain USA300, partner beta-lactam Mecillinam at 1/4x its MIC): 4
Fold reduction in Compound 155 MIC ([1]; MRSA strain USA300, partner beta-lactam Meropenem at 1/4x its MIC): 16
Fold reduction in Compound 155 MIC ([1]; MRSA strain USA300, partner beta-lactam Methicillin at 1/4x its MIC): 16
Fold reduction in Compound 155 MIC ([1]; MRSA strain USA300, partner beta-lactam Mezlocillin at 1/4x its MIC): 8
Fold reduction in Compound 155 MIC ([1]; MRSA strain USA300, partner beta-lactam Moxalactam at 1/4x its MIC): 32
Fold reduction in Compound 155 MIC ([1]; MRSA strain USA300, partner beta-lactam Oxacillin at 1/4x its MIC): 32
Fold reduction in Compound 155 MIC ([1]; MRSA strain USA300, partner beta-lactam Piperacillin/tazobactam at 1/4x its MIC): 8
Fold reduction in Compound 155 MIC ([1]; MRSA strain USA300, partner beta-lactam Ticarcillin at 1/4x its MIC): 32
Compound 155 MIC ([1]; MRSA strain USA300, partner beta-lactam: None): 4 µg/mL
synergy with beta-lactam antibiotics as quantified by SIC determination ([1]; SIC less than or equal to 1/4 MIC means sum of the FICs ≤0.5, indicating synergy): synergize
time-kill: reduction of viable cells, combination compared with either agent alone [2]: synergistic
